Measured values reported in US9663486B2, “Selectively substituted quinoline compounds” (EISAI R&D MANAGEMENT CO., LTD., priority 2013, dated 2017).

What was measured:
Human TLR4 = Human TLR4 (Homo sapiens, UniProt O00206); assay: HEK-293 NFkB-luciferase reporter assay, LPS stimulation; assay type: cell-based; set-up: stably and individually express human TLR4, TLR7 or TLR9 full-length ORF cDNAs; expressed in transfected cells; host or cells: HEK-293 (ATCC) with ELAM-1 NF-kappaB luciferase reporter; conditions: ligand LPS
Text: (§1) HEK-293 cells (ATCC) were engineered to stably express a NF-kappaB transcription factor inducible E-selectin (ELAM-1) luciferase reporter derived from the plasmid pGL3 (Promega) containing base pairs −2241 bp to −254 bp from the promoter of the human E-selectin gene (Accession No. NM_000450). These cells were then subsequently engineered to stably and individually express human TLR4, TLR7 or TLR9 full-length ORF cDNAs. Human TLR4 cDNA (Accession No. NM_138554) was cloned into pcDNA 3.0 expression vector (Invitrogen). TLR4 transfected cells were also engineered to express human MD-2 co-receptor [MD-2 cDNA (Accession No. NM_015364) was cloned into the pEF-BOS vector] and were supplemented with 10 nM soluble CD14 (R&D Systems) in the media to optimize LPS responsiveness. Human TLR9 cDNA (Accession No. NM_017442) was cloned into the pBluescript II KS vector (Agilent). Human TLR7 cDNA (Accession No. NM_016562) was obtained from OriGene. HEK-293 cells stably expressing human TLR8 (Accession No. NM_138636) or mouse TLR7 (Accession No. NM_133211) were purchased from InvivoGen and were then stably transfected with pNiFty2(NF-kappaB)-luciferase reporter plasmid (InvivoGen). Each cell type was plated in Dulbecco's modified Eagle's medium (DMEM) containing 10% fetal bovine serum (FBS) at a density of 2.22×10^5 cells/ml into a 384-well plate and incubated for 2 days at 37° C., 5% CO2. […]

Human TLR9 = molecular target: T1, Human TLR9 (Homo sapiens, UniProt Q9NR96); assay: HEK-293 NFkB-luciferase reporter assay, CpG-ODN stimulation; assay type: cell-based; set-up: stably and individually express human TLR4, TLR7 or TLR9 full-length ORF cDNAs; expressed in transfected cells; host or cells: HEK-293 (ATCC) with ELAM-1 NF-kappaB luciferase reporter; conditions: ligand CpG-ODN
T1 sequence (Q9NR96 26-1032): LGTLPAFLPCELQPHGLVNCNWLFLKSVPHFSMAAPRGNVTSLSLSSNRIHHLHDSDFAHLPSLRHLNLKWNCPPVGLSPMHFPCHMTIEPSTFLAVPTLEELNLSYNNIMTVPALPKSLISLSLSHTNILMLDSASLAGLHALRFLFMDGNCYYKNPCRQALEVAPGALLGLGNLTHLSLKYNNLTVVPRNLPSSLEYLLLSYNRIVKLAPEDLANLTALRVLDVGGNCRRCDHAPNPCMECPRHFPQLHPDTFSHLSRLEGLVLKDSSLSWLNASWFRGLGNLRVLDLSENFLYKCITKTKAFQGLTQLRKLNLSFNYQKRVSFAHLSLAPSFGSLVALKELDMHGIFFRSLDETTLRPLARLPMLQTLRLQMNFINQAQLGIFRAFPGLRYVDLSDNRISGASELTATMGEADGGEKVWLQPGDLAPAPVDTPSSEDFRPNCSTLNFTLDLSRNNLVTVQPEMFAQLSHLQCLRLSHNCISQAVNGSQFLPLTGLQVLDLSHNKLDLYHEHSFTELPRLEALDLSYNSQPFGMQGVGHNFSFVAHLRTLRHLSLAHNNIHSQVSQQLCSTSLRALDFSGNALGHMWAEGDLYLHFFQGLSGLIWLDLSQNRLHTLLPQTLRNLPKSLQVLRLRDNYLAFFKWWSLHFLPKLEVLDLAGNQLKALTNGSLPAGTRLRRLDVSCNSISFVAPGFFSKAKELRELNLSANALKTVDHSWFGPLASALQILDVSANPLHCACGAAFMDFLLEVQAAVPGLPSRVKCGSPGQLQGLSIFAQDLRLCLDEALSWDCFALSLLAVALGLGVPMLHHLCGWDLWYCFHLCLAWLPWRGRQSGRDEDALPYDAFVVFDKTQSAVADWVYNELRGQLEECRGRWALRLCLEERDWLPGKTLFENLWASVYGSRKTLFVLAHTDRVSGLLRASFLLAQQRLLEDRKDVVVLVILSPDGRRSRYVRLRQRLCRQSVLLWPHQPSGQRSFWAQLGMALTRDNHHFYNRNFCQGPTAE
Text: as §1

Chain of Human TLR4 (O00206 24-839): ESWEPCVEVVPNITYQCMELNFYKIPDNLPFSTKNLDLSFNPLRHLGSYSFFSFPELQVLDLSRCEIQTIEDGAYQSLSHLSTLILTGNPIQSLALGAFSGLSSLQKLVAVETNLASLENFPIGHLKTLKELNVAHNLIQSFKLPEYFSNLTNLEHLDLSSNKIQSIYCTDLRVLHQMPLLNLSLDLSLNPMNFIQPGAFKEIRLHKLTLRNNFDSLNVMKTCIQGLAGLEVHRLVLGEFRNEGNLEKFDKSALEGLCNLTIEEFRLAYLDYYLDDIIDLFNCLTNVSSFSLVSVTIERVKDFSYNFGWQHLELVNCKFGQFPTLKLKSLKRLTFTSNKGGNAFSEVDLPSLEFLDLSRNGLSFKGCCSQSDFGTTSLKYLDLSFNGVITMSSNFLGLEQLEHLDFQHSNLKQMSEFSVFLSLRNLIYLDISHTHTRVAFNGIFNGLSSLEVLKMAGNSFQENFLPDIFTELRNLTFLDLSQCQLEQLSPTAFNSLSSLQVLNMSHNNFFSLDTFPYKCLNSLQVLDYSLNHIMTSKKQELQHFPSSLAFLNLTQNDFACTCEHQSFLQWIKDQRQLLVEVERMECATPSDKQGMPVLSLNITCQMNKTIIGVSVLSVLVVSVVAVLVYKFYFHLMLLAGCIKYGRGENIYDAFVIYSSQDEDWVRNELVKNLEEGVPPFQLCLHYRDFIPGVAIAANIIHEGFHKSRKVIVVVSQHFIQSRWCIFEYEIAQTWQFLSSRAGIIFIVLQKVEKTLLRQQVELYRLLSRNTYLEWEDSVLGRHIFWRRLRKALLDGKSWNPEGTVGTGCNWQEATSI
Chain of Human TLR4 (Q9Y6Y9 19-160 partner): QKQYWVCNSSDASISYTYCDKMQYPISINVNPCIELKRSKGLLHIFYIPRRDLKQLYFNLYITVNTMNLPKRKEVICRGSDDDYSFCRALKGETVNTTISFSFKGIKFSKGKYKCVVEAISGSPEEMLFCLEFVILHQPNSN

`C[C@H]1C[C@@H](N)CN(c2ccc(C#N)c3ncccc23)C1` [ER-888840, 5-((3R,5S)-3-amino-5-methylpiperidin-1-yl)quinoline-8-carbonitrile] was tested, and the IC50 (Human TLR4) was > 10 µM and the IC50 (Human TLR9) was 8.77 µM.
